Reference: patent US6242494A, “Substituted β-amino acid inhibitors of methionine aminopeptidase-2” (Abbott Laboratories, priority 1999, dated 2001)
pIC50: −log10 of the molar value. Counter-ions that a name gives are not always drawn.

Biological target: T1, methionine aminopeptidase-2 (MetAP2) (Homo sapiens, UniProt P50579)
T1 construct: made in house; host or cells: insect cells, baculovirus system (secreted, purified from culture supernatant)
Assay: Inhibition of MetAP2 enzyme activity (96-well, Met-Ala-Ser substrate, L-amino acid oxidase/peroxidase/ortho-dianisidine, 450 nm)
Format: biochemical
Conditions: IC50, recombinant MetAP2 4 μg/mL, pH 7.4, Met-Ala-Ser substrate, 20 minutes
Description: The ability of compounds of the present invention to inhibit methionine aminopeptidase 2 was evaluated using the following assay.
Assays for MetAP2 enzyme activity and MetAP2 inhibition were performed in 96-well microtiter plates. Compounds to be tested for MetAP2 inhibition were dissolved in dimethyl-sulfoxide at 10 mM and diluted ten-fold in assay buffer ([…], pH 7.4, 100 mM NaCl). Ten microliters of solution of each compound to be tested for inhibition were introduced into each cell of the plate, with each compound being tested in triplicate.
The absorbence at 450 nanometers was measured every 20 seconds over a period of twenty minutes using an automaic plate reader (Molecular Devices, CA, USA). The Vmax in mOD/min, calculated for each well was used to represent MetAP2 activity. The IC50 for each inhibitor was obtained by plotting the remaining MetAP2 activity versus inhibitor concentration.

T1 sequence (P50579 whole entry): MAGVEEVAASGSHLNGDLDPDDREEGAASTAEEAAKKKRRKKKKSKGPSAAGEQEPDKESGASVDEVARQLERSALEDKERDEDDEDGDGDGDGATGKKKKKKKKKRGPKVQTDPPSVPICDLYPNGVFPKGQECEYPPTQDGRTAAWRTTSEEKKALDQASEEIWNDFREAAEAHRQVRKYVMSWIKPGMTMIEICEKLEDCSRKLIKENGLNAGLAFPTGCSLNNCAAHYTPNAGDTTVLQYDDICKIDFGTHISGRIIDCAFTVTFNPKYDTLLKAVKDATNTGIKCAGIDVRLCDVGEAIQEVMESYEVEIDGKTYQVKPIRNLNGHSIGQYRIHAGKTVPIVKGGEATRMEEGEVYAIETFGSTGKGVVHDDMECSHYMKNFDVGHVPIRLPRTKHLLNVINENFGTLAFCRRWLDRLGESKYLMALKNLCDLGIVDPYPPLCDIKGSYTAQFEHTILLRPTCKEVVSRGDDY

SMILES | pIC50
N[C@H](CC1CCCCC1)C(O)C(=O)Nc1cccc(OCc2ccccc2)c1 (mixture of isomers) [Example 223, (2RS,3R)-3-amino-N-(3-(benzyloxy)phenyl)-4-cyclohexyl-2-hydroxybutanamide Hydrochloride] | 6.06
N[C@H](CC1CCCCC1)C(O)C(=O)NCCCCNS(=O)(=O)c1ccc2ccccc2c1 (mixture of isomers) [Example 87, (2RS,3R)-3-amino-4-cyclohexyl-2-hydroxy-N-(4-((2-naphthylsulfonyl)amino)butyl)butanamide hydrochloride] | 5.57
N[C@H](CC1CCCCC1)C(O)C(=O)Nc1ccc(F)cc1 (mixture of isomers) [Example 144, (2RS,3R)-3-amino-4-cyclohexyl-N-(4-fluorophenyl)-2-hydroxybutanamide] | 5.68
CSCC[C@@H](N)C(O)C(=O)NCCc1ccc(S(N)(=O)=O)cc1 (stereo partly drawn) [Example 9, (2RS,3R)-N-(2-(4-sulfonamidophenyl)ethyl)-3-amino-2-hydroxy-5-(methylthio)pentanamide hydrochloride] | 5.64
CC(C)(C)c1ccc(COC(=O)[C@@H](CO)NC(=O)C(O)[C@H](N)CC2CCCCC2)cc1 (stereo partly drawn) [Example 137, 4-(tert-butyl)benzyl (2RS,3R,2'R)-2-((3-amino-4-cyclohexyl-2-hydroxybutanoyl)amino-3-hydroxypropanoate trifluoroacetate] | 5.08
CCSCC[C@@H](N)C(O)C(=O)NCCCCCNS(=O)(=O)c1cccc2c(N(C)C)cccc12 (some centres unmarked) [Example 79, dihydrochloride] | 7.00
N[C@H](CC1CCCCC1)C(O)C(=O)Nc1ccccc1Cl (mixture of isomers) [Example 149, (2RS,3R)-3-amino-N-(2-chlorophenyl)-4-cyclohexyl-2-hydroxybutanamide] | 6.03
N[C@H](CC1CCCCC1)C(O)C(=O)Nc1cccc(Oc2ccccc2)c1 (mixture of isomers) [Example 162, (2RS,3R)-3-amino-4-cyclohexyl-2-hydroxy-N-(3-phenoxyphenyl)butanamide hydrochloride] | 5.92
N[C@H](CC1CCCCC1)C(O)C(=O)NCCc1ccc(Br)cc1 (mixture of isomers) [Example 201, (2RS,3R)-3-amino-N-(4-bromophenethyl)-4-cyclohexyl-2-hydroxybutanamide Hydrochloride] | 6.15
CC(C)(C)CC(C)(C)NC(=O)C(O)[C@H](N)CC1CCCCC1 (mixture of isomers) [Example 230, (2RS,3R)-3-amino-4-cyclohexyl-2-hydroxy-N-(1,1,3,3-tetramethylbutyl)butanamide Hydrochloride] | 4.47
N[C@H](CC1CCCCC1)C(O)C(=O)NC(CO)CO (mixture of isomers) [Example 136, (2RS,3R)-3-amino-4-cyclohexyl-2-hydroxy-N-(2-hydroxy-1-(hydroxymethyl)ethyl)butanamide trifluoroacetate] | 5.74
C[C@@H](COC(=O)c1ccccc1)NC(=O)C(O)[C@H](N)CC1CCCCC1 (stereo partly drawn) [Example 49, (2RS, 3R,2'S)-N-((2-benzoyloxypropyl)-3-amino-2-hydroxy-4-cyclohexyl)butanamide hydrochloride] | 5.66
N[C@H](CC1CCCCC1)C(O)C(=O)NCc1cccc2ccccc12 (stereo partly drawn) [Example 235, (2RS,3R)-3-amino-4-cyclohexyl-2-hydroxy-N-(1-napthylmethyl)butanamide Hydrochloride] | 6.01
N[C@H](CC1CCCCC1)C(O)C(=O)NC12CC3CC(CC(C3)C1)C2 (mixture of isomers) [Example 202, (2RS,3R)-N-(1-adamantyl)-3-amino-4-cyclohexyl-2-hydroxybutanamide Hydrochloride] | 5.08
N[C@H](CC1CCCCC1)C(O)C(=O)NCCCCc1ccccc1 (some centres unmarked) [Example 30, hydrochloride] | 5.96
N[C@H](CC1CCCCC1)C(O)C(=O)Nc1ccc(Cl)cc1 (mixture of isomers) [Example 147, (2RS,3R)-3-amino-N-(4-chlorophenyl)-4-cyclohexyl-2-hydroxybutanamide] | 6.00
N[C@H](CC1CCCCC1)C(O)C(=O)NCc1cc(C(F)(F)F)cc(C(F)(F)F)c1 (mixture of isomers) [Example 237, (2RS,3R)-3-amino-N-(3,5-bis(trifluoromethyl)benzyl)-4-cyclohexyl-2-hydroxybutanamide Hydrochloride] | 5.29
NCCCCNC(=O)C(O)[C@H](N)CC1CCCCC1 (stereo partly drawn) [Example 82, (2RS,3R)-3-amino-2-hydroxy-4-cyclohexyl)butanoyl-(4-aminobutyl)amide dihydrochloride] | 4.42
CC(NC(=O)C(O)[C@H](N)CC1CCCCC1)C12CC3CC(CC(C3)C1)C2 (mixture of isomers) [Example 233, (2RS,3R)-N-(1-(1-adamantyl)ethyl)-3-amino-4-cyclohexyl-2-hydroxybutanamide Hydrochloride] | 5.57

SMILES | pIC50
CC(Cc1ccccc1F)NC(=O)C(O)[C@H](N)CC1CCCCC1 (mixture of isomers) [Example 226, (2RS,3R)-3-amino-4-cyclohexyl-N-(2-(2-fluorophenyl)-1-methylethyl)-2-hydroxybutanamide Hydrochloride] | 6.01
N[C@H](CC1CCCCC1)C(O)C(=O)NCc1ccc(C(F)(F)F)cc1 (mixture of isomers) [Example 158, (2RS,3R)-3-amino-4-cyclohexyl-2-hydroxy-N-(4-(trifluoromethyl)benzyl)butanamide] | 5.55
N[C@H](CC1CCCCC1)C(O)C(=O)NC1CCC1 (mixture of isomers) [Example 208, (2RS,3R)-3-amino-N-cyclobutyl-4-cyclohexyl-2-hydroxybutanamide Hydrochloride] | 5.57
CCOC(=O)CN(C)C(=O)C(O)[C@H](N)CCSCC (some centres unmarked) [Example 39, hydrochloride] | 5.29
C[C@H](NC(=O)C(O)[C@H](N)CC1CCCCC1)C(=O)OCc1ccccc1CS(=O)(=O)c1ccccc1 (stereo partly drawn) [Example 91, (2RS,3R)-3-Amino-2-hydroxy-4-cyclohexyl)butanoyl-L-alanine-2-((phenylsulfonyl)methyl)benzyl Ester Hydrochloride] | 5.64
CC(C)(NC(=O)C(O)[C@H](N)CC1CCCCC1)C(=O)OCc1ccccc1 (some centres unmarked) [Example 89, Hydrochloride] | 5.18
N[C@H](CC1CCCCC1)C(O)C(=O)NC1C2CC3CC(C2)CC1C3 (mixture of isomers) [Example 203, (2RS,3R)-N-(2-adamantyl)-3-amino-4-cyclohexyl-2-hydroxybutanamide Hydrochloride] | 5.31
N[C@H](CC1CCCCC1)C(O)C(=O)Nc1ccc(Cl)c(Cl)c1 (mixture of isomers) [Example 153, (2RS,3R)-3-amino-4-cyclohexyl-N-(3,4-dichlorophenyl)-2-hydroxybutanamide] | 6.43
Cc1ncc([N+](=O)[O-])n1CCNC(=O)[C@H](C)NC(=O)C(O)[C@H](N)CC1CCCCC1 (stereo partly drawn) [Example 61, ((2RS,3R)-3-amino-2-hydroxy-4-cyclohexyl)butanoyl-L-alanyl-(2-methyl-5-nitroimidazolyl-ethyl)amide hydrochloride] | 4.89
CCSCC[C@@H](N)C(O)C(=O)N[C@@H](C)C(=O)O (some centres unmarked) [Example 34, hydrochloride] | 5.51
N[C@H](CC1CCCCC1)C(O)C(=O)NCCc1ccc(Cl)cc1 (mixture of isomers) [Example 198, (2RS,3R)-3-amino-N-(4-chlorophenethyl)-4-cyclohexyl-2-hydroxybutanamide hydrochloride] | 6.08
N[C@H](Cc1ccccc1)C(O)C(=O)NCCCCc1ccccc1 (mixture of isomers) [Example 22, (2RS,3R)-N-(4-phenylbutyl)-3-amino-2-hydroxy-4-phenyl-butanamide hydrochloride] | 5.47
N[C@H](CC1CCCCC1)C(O)C(=O)NCCCn1ccnc1 (stereo partly drawn) [Example 74, ((2RS,3R)-3-amino-2-hydroxy-4-cyclohexyl)butanoyl-(3-imidazolylpropyl)amidedihydrochloride] | 4.52
CC(C)(C)c1ccc(CNC(=O)C(O)[C@H](N)CC2CCCCC2)cc1 (stereo partly drawn) [Example 156, (2RS,3R)-3-amino-N-(4-tert-butyl)benzyl-4-cyclohexyl-2-hydroxybutanamide] | 5.41
CSCC[C@@H](N)C(O)C(=O)N(C)CCc1ccccc1 (stereo partly drawn) [Example 33, (2RS,3R)-3-amino-2-hydroxy-N-methyl-5-(methylthio)-N-phenethylpentanaamide hydrochloride] | 5.60
COc1ccccc1CCNC(=O)C(O)[C@H](N)CC1CCCCC1 (mixture of isomers) [Example 197, (2RS,3R)-3-amino-4-cyclohexyl-2-hydroxy-N-(2-methoxyphenethyl)butanamide hydrochloride] | 6.24
CC(C)(Cc1ccc(F)cc1)NC(=O)C(O)[C@H](N)CC1CCCCC1 (mixture of isomers) [Example 227, (2RS,3R)-3-amino-4-cyclohexyl-N-(2-(4-fluorophenyl)-1,1-dimethylethyl)-2-hydroxybutanamide Hydrochloride] | 6.06
CSCC[C@@H](N)C(O)C(=O)NCCc1ccncc1 (mixture of isomers) [Example 19, (2RS,3R)-N-(2-(4-pyridyl)ethyl)-3-amino-2-hydroxy-5-(methylthio)pentanamide] | 5.80

Same assay, conditions: recombinant MetAP2 4 μg/mL, pH 7.4, Met-Ala-Ser substrate, 20 minutes

SMILES | pIC50
CCCC[C@H](NC(=O)C(O)[C@H](N)CC1CCCCC1)C(=O)OC (stereo partly drawn) [Example 129, methyl (2RS,3R,2'S)-2-((3-amino-4-cyclohexyl-2-hydroxybutanoyl)amino)hexanoate hydrochloride] | 4.57
